The source of these data is patent US9662305B2 (REVIVE THERAPEUTICS INC., priority 2012, dated 2017).

SMILES strings stand for the structures.

The subject of one series is hyperuricaemic mice. The series can be described thus: Hyperuricaemic (potassium oxonate) mice: serum and urinary uric acid, urinary creatinine. It counts as in vivo, mouse. The procedure:
A total of 45 C57/Black 6 mice in 9 groups (n=5) were studied for a period of one week. The drugs were dissolved or dispersed in distilled water immediately prior to dosing and administered in a volume of 15 mL/kg by gastric gavage. The volume of drug administered was based on the body weight determined on the day of dosing. […] Whole blood and urine samples were collected 1 h after final drug administration on the seventh day. […] The serum and urine were stored at −80° C. until assayed. The uric acid levels in serum and urine were determined by the phosphotungstic acid method.^54 The creatinine levels in serum were determined spectrophotometrically using standard diagnostic kits.

Series [1] deals with subjects with acute gout flares. Nature of the series: Open-label, active-controlled clinical trial in acute gout flares. Particulars: for proportion of subjects with ≧50% reduction in target joint pain score from baseline at 72 hours post-dose: PI-NRS. As to the method: The primary efficacy endpoint is the proportion of patients who responded to treatment. Treatment responders are defined as a ≧50% reduction in target joint pain score from baseline at 72 hours post-dose without using rescue drug. The target joint pain score is an 11-point Pain Intensity Numeric Rating Scale (PI-NRS) used to assess joint pain intensity while experiencing a gout flare on a scale from 0 (no pain) to 10 (worst possible pain).

In a further series the test system is THP-1 cells. The following applies: THP-1 cells stimulated with lipopolysaccharide; cited from earlier work.
The next series deals with Male C57/BL/6 mice. Nature of the series: Monosodium urate crystal-induced peritoneal inflammation in mice. It counts as in vivo, mouse. Particulars: for decrease of mean neutrophil influx for every increase of 1 μmol/kg of the drug: single drug i.p., MSU crystals 0.5 mg i.p., logarithmic model. The procedure:
Colchicine was dissolved in PBS and administered at a dose of 0.05, 0.5 and 5 μmol/kg in a similar fashion. […] The mice were euthanised after 6 hours with CO2 and the peritoneal cells removed by lavage with 10 mL of cold PBS. The lavage fluid was analysed for neutrophil infiltration using a cytospin and Diff-Quick staining. The concentrations of IL-1β and IL-6 in the lavage supernatants was determined using an R&D Systems Quantikine mouse immunoassay.

The subject of series [2] is mouse peritoneal macrophages. Nature of the series: MSU crystal-induced cytokine release from mouse peritoneal macrophages.
Procedure: Male C57/BL/6 mice were injected intraperitoneally with 4% thioglycollate solution and the macrophages collected by peritoneal lavage 3 days later.^57 The cells were plated at a density of 7×10^5 cells in 12-well dishes and non-adherent cells were removed after 3 hours. The cells were cultured in RPMI containing 10% FCS, sodium pyruvate, penicillin/streptomycin and L-glutamine. […] The concentration of IL-1β in the supernatant was determined with an R&D systems Quantikine mouse immunoassay.
The next series relates to patients. The following applies: febuxostat 80 mg/day; cited from earlier work.

With `Oc1ncnc2[nH]ncc12` [allopurinol], the “effect on serum urate” value in the series with hyperuricaemic mice (allopurinol 5 mg/kg/day, 7 days, to a level below normal baseline) is on record as “highly significant (p<0.001) drop in serum urate”. Further, in the series with hyperuricaemic mice (allopurinol 5 mg/kg/day, level still below normal baseline), the “effect on urinary uric acid” value is listed as “highly significant (p<0.001) increase in urinary uric acid”.

Take `CC(C)(S)C(=O)N[C@@H](CS)C(=O)O` [bucillamine, N-(2-mercapto-2-methylpropionyl)-L-cysteine]: the “proportion of subjects with ≧50% reduction in target joint pain score from baseline at 72 hours post-dose” value in series [1] (Arm A, 900 mg, 2/8 subjects) was 25%; in series [1] (Arm B, 1,800 mg, 6/9 subjects), 67%. In addition, the “use of rescue medication” value in series [1] (Arm B, 1,800 mg, all subjects, seven-day treatment period) is listed as “completed the treatment period without the use of rescue medication”. For the same compound, the “release of TNF-α, IL-1β and IL-8” value in the series with THP-1 cells is given as “attenuated”. The “release of IL-1β and IL-6 into the peritoneal cavity” value in the series on Male C57/BL/6 mice (after injection of monosodium urate crystals, mouse) was “attenuated”. Moreover, in the series on Male C57/BL/6 mice (bucillamine 10 μmol/kg added to colchicine, MSU crystals i.p., 6 hours), the “effect of addition of bucillamine on average neutrophil influx” value is “highly significant (p<0.001) decrease in average neutrophil influx”. The “decrease of mean neutrophil influx for every increase of 1 μmol/kg of the drug” value with Male C57/BL/6 mice (6 hours) came out at 5.15%. Besides, the “increase of mean urinary uric acid for each increase of 1 mg/kg/day” value in the series on hyperuricaemic mice (bucillamine alone, 7 days, dose-response slope) amounted to 0.079 mg/dL. Moreover, the “reduction of mean serum urate for each increase of 1 mg/kg/day” value in the series on hyperuricaemic mice (bucillamine alone, gastric gavage, 7 days, dose-response slope) is 0.0067 mg/dL. The “decrease in average IL-1β cytokine production with each additional 1 μmol/kg increase” value in series [2] (MSU crystals 50 μg/mL, 6 hours) was found to be 30.7 pg/mL. The “decrease in average IL-6 cytokine production with each additional 1 μmol/kg increase” value in series [2] (MSU crystals 50 μg/mL, 6 hours) came out at 13.7 pg/mL. In addition, the “decrease in average MSU crystal-induced IL-1β production” value in series [2] (addition of bucillamine 10 μmol/kg to colchicine) came to 65.0%.

For `COc1cc2c(c(OC)c1OC)-c1ccc(OC)c(=O)cc1[C@@H](NC(C)=O)CC2` [colchicine], the “proportion of subjects with ≧50% reduction in target joint pain score from baseline at 72 hours post-dose” value in series [1] (Arm C, 1.8 mg, 5/12 subjects) is given as 42%. Besides, the “related serious adverse events” value in series [1] (any of the treatment arms, seven-day treatment period) is “No related serious adverse events”. Also, the “decrease of mean neutrophil influx for every increase of 1 μmol/kg of the drug” value in the series on Male C57/BL/6 mice (6 hours) is 18.3%. Moreover, the “decrease of average MSU crystal-induced IL-1β production for every increase of 1 μmol/kg” value in series [2] (colchicine alone, logarithmic model) worked out at 29.6%.

Take `Cc1nc(-c2ccc(OCC(C)C)c(C#N)c2)sc1C(=O)O` [febuxostat]: the “patients who previously failed to normalise uric acid levels (<360 μmol/L) on allopurinol and also failed” value in the series on patients was 59%.
